The record followed here is a melting point compilation (Tetko et al.; mined from patent text by program, amines drawn as free bases though some values may be those of a salt).

In general, melting point refers to the temperature, or range, at which the solid turns liquid. For the molecule `COc1ccc(-c2cc(CN3C(=O)c4ccccc4C3=O)c(=O)n(Cc3ccc(Cl)cc3)n2)cc1F`, the melting point lay within 212 to 214 °C.
`CCOC(=O)C1=C(CCC(OC(=O)c2ccc([N+](=O)[O-])cc2)c2ccccc2)NC(C)=C(C(=O)OC)C1c1cccc([N+](=O)[O-])c1` (stereo not given) yielded a melting point of 75 to 90 °C.
In turn, `COCc1nnc(N)s1` came in with a melting point of 177 to 179 °C.
For `CCOC(=O)c1ccc2c(c1)C(c1ccc(O)cc1)(c1ccc(O)cc1)c1ccccc1-2`, the melting point worked out at 280 °C.
As to `Cc1cc(Cn2c(-c3ccccc3)nc(Cl)c2C=O)ccc1OCc1ccccc1`, the melting point lay in the range of 135 to 136 °C.
`Cc1ccc(C2=NN=C(c3ccccc3Cl)N(C)N2)cc1` displayed a melting point of 152 to 154 °C.
Regarding `COc1ccccc1-c1nc(C)c(-c2cccnc2)n1O`, the melting point fell in the range of 105 to 120 °C.
In the case of `O=Cc1c(Cl)ccc2cc(Cl)cnc12`, the melting point was 208 °C.
For the molecule `O=C(NC[C@H](O)c1ccccc1)c1ccnc(N2CCN(Cc3ccc(F)cc3)C2=O)c1`, the melting point was 97 to 99 °C.
To `COC(=O)c1ccc(CCCCc2c(N)nc(N)nc2O)cc1` belongs 203 to 205 °C; to `O=c1nc(-c2cccc(CSc3ccccn3)n2)sc2ccccc12`, 151 to 152 °C; to `CC1(C)Oc2ccc(S(=O)(=O)Nc3ccccc3)cc2C(N2CCCCC2=O)C1O` (stereo not given), 272 to 276 °C.
As for `CCOC(=O)c1c(CN(CC)CC)nc2sc3c(c2c1-c1ccc(OC)c(OC)c1)CCN(C(=S)Nc1ccccc1)C3`, the melting point lay in the range of 104 to 106 °C.
For `Cn1nc(C(F)(F)F)cc1O`, the melting point fell in the range of 170 to 173 °C.
In the case of `Cc1cc(C)nc(OC(C(=O)O)C(O/C=C/Cc2ccccc2)(c2ccccc2)c2ccccc2)n1` (stereo not given) it was 128 to 133 °C; in that of `Cc1cc(OCc2ccc(-c3ccc(OC(F)(F)F)cc3)nc2C)ccc1OC(C)(C)C(=O)O`, 149 to 151 °C; in that of `COc1cc(N2CCN(c3c(C)c(C)c4c(c3C)CC(C)(C)O4)CC2)ccc1F`, 152 to 155 °C.
In the case of `CC1=CC(=O)C(O)=CC1=CC=Cc1ccccc1`, the melting point fell in the range of 164 to 165 °C.
Take `CNC(=O)c1sc(C(C)(C)C)cc1NC(=O)Nc1ccc(C)cc1`: the melting point was 202 to 204 °C.
To `COC(=O)c1ccc(CO)cc1O` belongs 77 to 78 °C.
Molecule `O=[N+]([O-])c1cc(C(F)(F)F)ccc1NCCO` returned a melting point of 74.9 °C.
`COc1ccc(C2CCc3cc(Br)ccc3O2)cc1` (stereo not given): the melting point fell in the range of 121 to 123 °C.
On to `CN1CCN(c2ccc([N+](=O)[O-])cc2C(F)(F)F)C1=O`, for which the melting point fell in the range of 119 to 120 °C.
Take `O=C(O)c1cn([C@@H]2C[C@@H]2F)c2c(Cl)c(Cl)ccc2c1=O`: the melting point lay in the range of 198 to 201 °C.
In the case of `CCOC(=O)c1cn(CC)c2cc(-c3csc(C(C)NC(C)=O)n3)c(F)cc2c1=O` (stereo not given) it was 236 to 238 °C; in that of `CCCN1CC(c2ccc(S(C)(=O)=O)cc2)=C(c2ccc(C)cc2)C1=O`, 161 to 163 °C.
`CC(C)c1ccccc1Sc1c(O)cc(-c2ccc(OCC(=O)O)cc2)oc1=O` came in with a melting point of 217 °C.
Molecule `COc1ccc(-c2nc(-c3ccc4oc(=O)[nH]c4c3)cs2)cc1OC` showed a melting point of 271 to 272 °C.
The molecule `COc1c(NC(=O)c2cc3cccc(Oc4ccnc(NCCN5CCOCC5)n4)c3n2C)cc(C(C)(C)C)cc1NS(C)(=O)=O` returned a melting point of 201 to 202 °C.
Molecule `COc1ccc(/C=C/C(=O)c2ccc(CC3SC(=O)NC3=O)cc2)cc1` (stereo not given) had a melting point of 177 to 180 °C.
Consider `O=C1c2ccccc2C(=O)N1CCCC(O)CF` (stereo not given), for which the melting point came out at 85 °C.
In the case of `Nc1c(C(=O)c2cccc(C(F)(F)F)c2)[nH]c2cc(Cl)ccc12` it was 84 to 87 °C.
`C=C=CS(=O)(=O)c1ncc(Cl)cn1` yielded a melting point of 130 °C.
For the molecule `CCCCOC(=O)c1ccc(N(C)C=Nc2ccc(C(=O)OCC)cc2)cc1`, the melting point lay within 83 to 85 °C.
Take `O=C(O)CCc1cn(Cc2ccc(OCc3ccccn3)cc2)cc1-c1ccccc1`: the melting point fell in the range of 109 to 110 °C.
For `Cc1cccc(-c2ccc(S(=O)(=O)N3c4ccccc4CC3C(=O)NCc3ccc(CC(=O)O)cc3)cc2)c1` (stereo not given), the melting point fell in the range of 118 to 120 °C.
Molecule `CC(C)(C)n1cc(-c2ccc(I)cc2)c2c(N)ncnc21` displayed a melting point of 188 to 189 °C.
`Fc1cc(Cc2cccs2)c(Cl)cc1Cl` registered a melting point of 60 to 61 °C.
`COc1cc2nc(N3CCN(c4ccnc(Cl)n4)CC3)cc(N)c2cc1OC` had a melting point of 266 °C.
Take `C/C(=C\C=O)c1ccc(OCc2nc(-c3ccccc3)oc2C)cc1`: the melting point fell in the range of 94 to 95 °C.
Consider `O=C(O)c1cc([N+](=O)[O-])cc2ccc(-c3ccccc3)nc12`, for which the melting point is 268 to 269 °C.
`CC(=O)OCC1CC(=O)NN=C1c1ccc2c(c1)CCC(=O)N2C` (stereo not given) showed a melting point of 149 to 153 °C.
Molecule `CC(C)Cn1c(=O)n(C)c(=O)c2c(-c3ccsc3)c(Cc3ccccc3C(F)(F)F)sc21` showed a melting point of 113 to 114 °C.
In turn, `CCCc1c(-c2cc(=O)c3c(O)c(CCC)c(OCC4=COC(C)(C)O4)cc3o2)ccc(OC)c1O` showed a melting point of 148 °C.
Turning to `COc1nc(C)cnc1NS(=O)(=O)c1cccnc1-c1ccc(OCCO)cc1`, the melting point was in the range of 180 to 182 °C.
`O=C(OCc1ccccc1)N1CCC(NCC(O)Cn2ccnc2[N+](=O)[O-])C(O)C1` (stereo not given) returned a melting point of 140 to 142 °C.
The molecule `COC(=O)C(C)(C)Cc1c(SC(C)(C)C)c2cc(OCc3ccc4cnccc4n3)ccc2n1Cc1ccc(Cl)cc1` had a melting point of 152 to 155 °C.
Regarding `NS(=O)(=O)c1cccc(-c2cn(-c3nc(-c4ccc(Cl)cc4)cc(C(F)(F)F)n3)cn2)c1`, the melting point came to 225 °C.
To `COc1cccc(O[C@@H]2COc3ccc(-c4ccc5cc(F)ccc5n4)cc3[C@@H]2O)c1` (relative stereo) belongs 131 to 132 °C; to `CC1(C)CC(Cl)C(=Cc2ccc(F)cc2)C1=O` (stereo not given), 69 °C.
With `CC(C)(C)c1ccc(C(=O)n2c3cc(O)c(O)cc3c3c(Br)cc(O)c(O)c32)cc1`, the melting point is > 280 °C.
The molecule `COc1cc(C=C2SC(=S)N(c3ccc(O)cc3)C2=O)ccc1OC1OC(CO)C(O)C(O)C1NC(C)=O` (stereo not given) had a melting point of 234 to 236 °C.
Molecule `O=c1[nH]c(=O)n(C2CC(O)C(CO)O2)cc1C#CI` (stereo not given) displayed a melting point of 135 to 137 °C.
In the case of `COc1ccc2ccccc2c1CCl` it was 122 to 123 °C; in that of `Cc1nc(C(O)c2ccc(Cl)cc2)sc1C` (stereo not given), 107 °C; in that of `O=C1c2ccccc2C(=O)N1CCOCCOCCOCCOCCOCCN1C(=O)c2ccccc2C1=O`, 124 to 126 °C.
`CCOC(=O)C(=Cc1cccn2cc(C(C)C)nc12)N=[N+]=[N-]` had a melting point of 66 to 68 °C.
For the molecule `Cn1c([N+](=O)[O-])cnc1CSc1ccccn1`, the melting point turned out to be 108 °C.
In the case of `COc1ccc(Cc2cc(Oc3c(C)cc(C=C4N=C(C)OC4=O)cc3C)ccc2OC)cn1` it was 164 to 165 °C; in that of `O=P(O)(O)Cc1ccc(C(F)(F)F)cc1`, 163 to 164 °C.
Consider `CS(=O)c1coc2cc(NS(C)(=O)=O)c(Oc3ccccc3)cc2c1=O` (stereo not given), for which the melting point is > 250 °C.
`CC(C)(C)c1cccc(S(=O)(=O)n2c(C(=O)c3ccc(C(=O)O)s3)cc3cc(C(F)(F)F)ccc32)c1`: the melting point stood at 217 °C.
The molecule `COc1ccccc1Sc1c(Cl)nc(C)nc1Cl` yielded a melting point of 140 °C.
`CC(O)C=Cc1ccc2c(c1)Cc1ccccc1-2` (stereo not given) registered a melting point of 153 °C.
Molecule `O=C(O)COc1ccc(-c2c(Cl)c(CN3C(=O)CCC3=O)nc3sc4c(c23)CCS(=O)(=O)C4)cc1` registered a melting point of 260 to 261 °C.
Turning to `Cc1cc(=O)n2c3c(cc(C(O)(C(F)(F)Cl)C(F)(F)Cl)cc13)CC2`, the melting point is 256 to 257 °C.
In the case of `OCCSCc1ccc(CSCCO)cc1` it was 90 to 92 °C; in that of `Cc1cn(C)c2c(OCc3ccccc3)cc3c(c12)[C@H](CO)CN3C(=O)OC(C)(C)C`, 138 to 140 °C; in that of `c1cc2c3c(cccc3c1)C(NOCCCn1ccnc1)=N2`, 102 to 104 °C.
As to `O=C1N(Cc2ccc(NC=NO)nc2)c2ccccc2C12COc1cc3c(cc12)OCCO3` (stereo not given), the melting point is 231 to 232 °C.
As for `O=C(Cc1ccccc1)NC1C(=O)N2C1SC1(CCN(c3ccccc3)CC1)C2C(=O)OCc1ccccc1` (stereo not given), the melting point was 120 to 121 °C.
The molecule `CCOC(=O)C1=C(COCCNC(=O)n2ccnc2)NC(C)=C(C(=O)OC)C1c1ccccc1Cl` (stereo not given) registered a melting point of 149 to 151 °C.
In turn, `CN(CCCCCC(=O)O)c1ccc(Br)cc1C=O` had a melting point of 95 to 96 °C.
Take `CON=C(C)c1ccc(Nc2nc3ccccc3c3occc23)cc1`: the melting point lay in the range of 222 to 223 °C.
Molecule `FC(F)(F)c1cc2ccccc2[nH]1` yielded a melting point of 102 °C.
Regarding `Cn1c(-c2ccccc2F)c2ccsc2nc1=O`, the melting point lay within 191 to 192 °C.
Turning to `CC(=O)C1=C(O)C(=C(C)Nc2ccc(O)cc2)C(=O)OC1=O`, the melting point lay within 223 to 225 °C.
To `O=C1C(c2cccn2Cc2ccccc2)=CC(=O)c2ncccc21` belongs 172 to 173 °C.
`Cc1nc(CNC(=O)c2ccnc(N3CCN(Cc4ccc(F)cc4)C3=O)c2)cs1` gave a melting point of 76 to 78 °C.
In the case of `CN1C(=O)C2CC(c3ccc(Cl)cc3)(C2)C1=O` it was 155 to 156 °C.
Molecule `Cc1cc(C2=NOC(c3cc(Cl)cc(Cl)c3)(C(F)(F)F)C2)ccc1C(=O)Cl` (stereo not given) returned a melting point of 140 to 143 °C.
`CN(N=Cc1c[nH]c2ccccc12)c1cc(N2CCOCC2)nc(OCCc2ccccn2)n1` displayed a melting point of 130 to 140 °C.
As to `CCOc1cc([C@H]2COCC[C@H]2NC(=O)c2ccc(C(=O)OC)cc2)ccc1OC`, the melting point is 166 to 168 °C.
On to `COc1cc2c(=O)n(Cc3ccc([N+](=O)[O-])cc3)c3cc(OC)c(OC)cc3c2cc1OC`, for which the melting point lay in the range of 199 to 200 °C.
To `OC1CCN(Cc2nc(-c3ccc4c(c3)Nc3ccccc3S4)cs2)CC1` belongs 205 to 207 °C.
